Results from patent publication US20220088016A1, “CANCER TREATMENT USING MULTI-TARGETED KINASE INHIBITOR IN COMBINATION OF PROTEIN KINASE BIOMARKERS” (ZHEJIANG CROWNMAB BIOTECH CO. LTD., priority 2019, published 2022).

How the values were obtained:
[1] = molecular target: ABL1 (E255K)-phosphorylated (Homo sapiens, UniProt P00519, E255K); assay: Kinase profiling; type: binding; details: read-out: % Ctrl @ 1000 nM
[2] = molecular target: ABL1 (F317I)-phosphorylated (Homo sapiens, UniProt P00519, F317I); assay: Kinase profiling; type: binding; details: read-out: % Ctrl @ 1000 nM
[3] = molecular target: ABL1 (Q252H)-nonphosphorylated (Homo sapiens, UniProt P00519, Q252H); assay: Kinase profiling; type: binding; details: read-out: % Ctrl @ 1000 nM
ACVR1 = ACVR1 (Homo sapiens, UniProt Q04771); assay: Kinase profiling; type: binding; details: read-out: % Ctrl @ 1000 nM
ACVR1B = ACVR1B (Homo sapiens, UniProt P36896); assay: Kinase profiling; type: binding; details: read-out: % Ctrl @ 1000 nM
BIKE = BIKE (Homo sapiens, UniProt Q9NSY1); assay: Kinase profiling; type: binding; details: read-out: % Ctrl @ 1000 nM
BMPR1A = BMPR1A (Homo sapiens, UniProt P36894); assay: Kinase profiling; type: binding; details: read-out: % Ctrl @ 1000 nM
CLK2 = CLK2 (Homo sapiens, UniProt P49760); assay: Kinase profiling; type: binding; details: read-out: % Ctrl @ 1000 nM
DLK = DLK (Homo sapiens, UniProt Q12852); assay: Kinase profiling; type: binding; details: read-out: % Ctrl @ 1000 nM
[4] = molecular target: EGFR (L747-T751del, Sins) (Homo sapiens, UniProt P00533, DEL747-750/T751S); assay: Kinase profiling; type: binding; details: read-out: % Ctrl @ 1000 nM
EGFR (L861Q) = EGFR (L861Q) (Homo sapiens, UniProt P00533, L861Q); assay: Kinase profiling; type: binding; details: read-out: % Ctrl @ 1000 nM
EPHA2 = EPHA2 (Homo sapiens, UniProt P29317); assay: Kinase profiling; type: binding; details: read-out: % Ctrl @ 1000 nM
FLT3 (ITD) = assay: Kinase profiling; type: binding
GRK7 = GRK7 (Homo sapiens, UniProt Q8WTQ7); assay: Kinase profiling; type: binding; details: read-out: % Ctrl @ 1000 nM
HASPIN = HASPIN (Homo sapiens, UniProt Q8TF76); assay: Kinase profiling; type: binding; details: read-out: % Ctrl @ 1000 nM
INSRR = INSRR (Homo sapiens, UniProt P14616); assay: Kinase profiling; type: binding; details: read-out: % Ctrl @ 1000 nM
KIT (V559D, V654A) = KIT (V559D, V654A) (Homo sapiens, UniProt P10721, V559D/V654A); assay: Kinase profiling; type: binding; details: read-out: % Ctrl @ 1000 nM
MRCKA = molecular target: T1, MRCKA (Homo sapiens, UniProt Q5VT25); assay: Kinase profiling; type: binding; details: read-out: % Ctrl @ 1000 nM
T1 construct: T7 phage fusion (stated for most kinases of the panel only); made in house; host or cells: T7 phage in E. coli (BL21-derived) or HEK-293 cells

MYLK = molecular target: T2, MYLK (Homo sapiens, UniProt Q15746); assay: Kinase profiling; type: binding; details: read-out: % Ctrl @ 1000 nM
T2 construct: T7 phage fusion (said for most assays); made in house

NDR1 = molecular target: T3, NDR1 (Homo sapiens, UniProt Q15208); assay: Kinase profiling; type: binding; details: read-out: % Ctrl @ 1000 nM
T3 construct: T7 phage fusion (said for most assays); made in house

NEK11 = molecular target: T4, NEK11 (Homo sapiens, UniProt Q8NG66); assay: Kinase profiling; type: binding; details: read-out: % Ctrl @ 1000 nM
T4 construct: T7 phage fusion (said for most assays); made in house

NLK = molecular target: T5, NLK (Homo sapiens, UniProt Q9UBE8); assay: Kinase profiling; type: binding; details: read-out: % Ctrl @ 1000 nM
T5 construct: T7 phage fusion (said for most assays); made in house

PAK6 = PAK6 (Homo sapiens, UniProt Q9NQU5); assay: Kinase profiling; type: binding; details: read-out: % Ctrl @ 1000 nM
PFPK5 (P.falciparum) = PFPK5 (P.falciparum) (Plasmodium falciparum, UniProt P61075); assay: Kinase profiling; type: binding; details: read-out: % Ctrl @ 1000 nM
PIK3C2B = PIK3C2B (Homo sapiens, UniProt O00750); assay: Kinase profiling; type: binding; details: read-out: % Ctrl @ 1000 nM
PIK3CA (E545K) = PIK3CA (E545K) (Homo sapiens, UniProt P42336, E545K); assay: Kinase profiling; type: binding; details: read-out: % Ctrl @ 1000 nM
RIPK1 = RIPK1 (Homo sapiens, UniProt Q13546); assay: Kinase profiling; type: binding; details: read-out: % Ctrl @ 1000 nM
SIK2 = SIK2 (Homo sapiens, UniProt Q9H0K1); assay: Kinase profiling; type: binding; details: read-out: % Ctrl @ 1000 nM
SNRK = SNRK (Homo sapiens, UniProt Q9NRH2); assay: Kinase profiling; type: binding; details: read-out: % Ctrl @ 1000 nM
TAOK1 = TAOK1 (Homo sapiens, UniProt Q7L7X3); assay: Kinase profiling; type: binding; details: read-out: % Ctrl @ 1000 nM
TBK1 = TBK1 (Homo sapiens, UniProt Q9UHD2); assay: Kinase profiling; type: binding; details: read-out: % Ctrl @ 1000 nM
TGFBR2 = TGFBR2 (Homo sapiens, UniProt P37173); assay: Kinase profiling; type: binding; details: read-out: % Ctrl @ 1000 nM
TIE2 = TIE2 (Homo sapiens, UniProt Q02763); assay: Kinase profiling; type: binding; details: read-out: % Ctrl @ 1000 nM
TLK2 = TLK2 (Homo sapiens, UniProt Q86UE8); assay: Kinase profiling; type: binding; details: read-out: % Ctrl @ 1000 nM
TRKC = TRKC (Homo sapiens, UniProt Q16288); assay: Kinase profiling; type: binding; details: read-out: % Ctrl @ 1000 nM
TTK = TTK (Homo sapiens, UniProt P33981); assay: Kinase profiling; type: binding; details: read-out: % Ctrl @ 1000 nM
TYRO3 = TYRO3 (Homo sapiens, UniProt Q06418); assay: Kinase profiling; type: binding; details: read-out: % Ctrl @ 1000 nM
403 non-mutant kinases = assay: Selectivity Score from kinase profiling
Description: Streptavidin-coated magnetic beads were treated with biotinylated small molecule ligands of the kinases for 30 minutes at room temperature to generate affinity resins for kinase assays. The liganded beads were blocked with excess biotin and washed with blocking buffer (SeaBlock (Pierce), 1% BSA, 0.05% Tween 20, 1 mM DTT) to remove unbound ligand and to reduce non-specific phage binding. Binding reactions were assembled by combining kinases, liganded affinity beads, and test compounds in 1× binding buffer (20% SeaBlock, 0.17×PBS, 0.05% Tween 20, 6 mM DTT). Test compounds were prepared as 40× stocks in 100% DMSO and directly diluted into the assay. All reactions were performed in polypropylene 384-well plates in a final volume of 0.04 ml. The assay plates were incubated at room temperature with shaking for 1 hour and the affinity beads were washed with wash buffer (1×PBS, 0.05% Tween 20). The beads were then re-suspended in elution buffer (1×PBS, 0.05% Tween 20, 0.5 μM non-biotinylated affinity ligand) and incubated at room temperature with shaking for 30 minutes. The kinase concentration in the eluates was measured by qPCR.
Selectivity Score or S-score is a quantitative measure of compound selectivity. It is calculated by dividing the number of kinases that compounds bind to by the total number of distinct kinases tested, excluding mutant variants.
S=Number of hits/Number of assays
This value can be calculated using % Ctrl as a potency threshold (below) and provides a quantitative method of describing compound selectivity to facilitate comparison of different compounds.
S(35)=(number of non-mutant kinases with % Ctrl<35)/(number of non-mutant kinases tested)
S(10)=(number of non-mutant kinases with % Ctrl<10)/(number of non-mutant kinases tested)
S(1)=(number of non-mutant kinases with % Ctrl<1)/(number of non-mutant kinases tested)

Sequence of RIPK1 (Q13546 whole entry): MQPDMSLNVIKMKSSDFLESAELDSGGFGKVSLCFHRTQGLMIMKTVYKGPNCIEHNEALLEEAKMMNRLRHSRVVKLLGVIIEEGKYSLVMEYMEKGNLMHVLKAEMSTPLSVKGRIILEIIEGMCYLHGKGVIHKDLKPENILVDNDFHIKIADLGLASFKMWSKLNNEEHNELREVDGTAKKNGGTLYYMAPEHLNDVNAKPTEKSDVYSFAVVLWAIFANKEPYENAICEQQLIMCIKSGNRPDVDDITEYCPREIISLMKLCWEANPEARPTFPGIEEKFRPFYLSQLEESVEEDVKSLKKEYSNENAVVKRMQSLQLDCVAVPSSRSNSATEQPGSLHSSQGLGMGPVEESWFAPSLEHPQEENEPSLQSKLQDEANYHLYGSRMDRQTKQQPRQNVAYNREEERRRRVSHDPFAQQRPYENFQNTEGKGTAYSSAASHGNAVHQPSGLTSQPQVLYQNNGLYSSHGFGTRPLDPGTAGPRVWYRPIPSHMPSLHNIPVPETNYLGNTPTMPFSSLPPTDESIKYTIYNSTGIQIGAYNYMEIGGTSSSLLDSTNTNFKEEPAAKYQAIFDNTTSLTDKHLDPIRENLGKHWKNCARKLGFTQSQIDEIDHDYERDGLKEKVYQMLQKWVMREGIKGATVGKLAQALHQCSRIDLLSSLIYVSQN
Sequence of TAOK1 (Q7L7X3 whole entry): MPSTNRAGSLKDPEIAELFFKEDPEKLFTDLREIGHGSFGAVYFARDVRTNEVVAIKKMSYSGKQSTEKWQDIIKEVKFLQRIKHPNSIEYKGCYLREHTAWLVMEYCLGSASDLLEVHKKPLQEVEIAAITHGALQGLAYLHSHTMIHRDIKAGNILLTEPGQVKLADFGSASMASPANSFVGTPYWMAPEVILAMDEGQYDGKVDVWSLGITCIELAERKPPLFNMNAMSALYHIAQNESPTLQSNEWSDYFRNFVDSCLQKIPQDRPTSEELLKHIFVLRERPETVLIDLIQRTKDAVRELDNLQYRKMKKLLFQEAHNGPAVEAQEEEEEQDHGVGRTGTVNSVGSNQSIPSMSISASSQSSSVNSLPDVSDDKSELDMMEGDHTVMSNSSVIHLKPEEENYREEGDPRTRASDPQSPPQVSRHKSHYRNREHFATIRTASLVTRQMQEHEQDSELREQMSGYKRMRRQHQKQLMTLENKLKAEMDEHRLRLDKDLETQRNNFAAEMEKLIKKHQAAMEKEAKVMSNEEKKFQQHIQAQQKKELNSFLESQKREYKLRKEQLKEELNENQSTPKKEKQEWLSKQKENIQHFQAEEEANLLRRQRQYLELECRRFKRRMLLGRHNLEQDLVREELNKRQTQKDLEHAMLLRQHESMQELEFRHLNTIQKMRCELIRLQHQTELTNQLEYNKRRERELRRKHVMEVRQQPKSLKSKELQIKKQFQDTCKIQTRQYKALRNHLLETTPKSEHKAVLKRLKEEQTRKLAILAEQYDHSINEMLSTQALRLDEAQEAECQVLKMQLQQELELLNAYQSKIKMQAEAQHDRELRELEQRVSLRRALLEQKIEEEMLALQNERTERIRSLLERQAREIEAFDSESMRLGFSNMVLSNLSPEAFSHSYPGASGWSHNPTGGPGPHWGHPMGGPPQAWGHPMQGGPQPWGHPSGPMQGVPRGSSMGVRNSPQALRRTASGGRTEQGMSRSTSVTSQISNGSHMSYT
Sequence of TRKC (Q16288 32-839): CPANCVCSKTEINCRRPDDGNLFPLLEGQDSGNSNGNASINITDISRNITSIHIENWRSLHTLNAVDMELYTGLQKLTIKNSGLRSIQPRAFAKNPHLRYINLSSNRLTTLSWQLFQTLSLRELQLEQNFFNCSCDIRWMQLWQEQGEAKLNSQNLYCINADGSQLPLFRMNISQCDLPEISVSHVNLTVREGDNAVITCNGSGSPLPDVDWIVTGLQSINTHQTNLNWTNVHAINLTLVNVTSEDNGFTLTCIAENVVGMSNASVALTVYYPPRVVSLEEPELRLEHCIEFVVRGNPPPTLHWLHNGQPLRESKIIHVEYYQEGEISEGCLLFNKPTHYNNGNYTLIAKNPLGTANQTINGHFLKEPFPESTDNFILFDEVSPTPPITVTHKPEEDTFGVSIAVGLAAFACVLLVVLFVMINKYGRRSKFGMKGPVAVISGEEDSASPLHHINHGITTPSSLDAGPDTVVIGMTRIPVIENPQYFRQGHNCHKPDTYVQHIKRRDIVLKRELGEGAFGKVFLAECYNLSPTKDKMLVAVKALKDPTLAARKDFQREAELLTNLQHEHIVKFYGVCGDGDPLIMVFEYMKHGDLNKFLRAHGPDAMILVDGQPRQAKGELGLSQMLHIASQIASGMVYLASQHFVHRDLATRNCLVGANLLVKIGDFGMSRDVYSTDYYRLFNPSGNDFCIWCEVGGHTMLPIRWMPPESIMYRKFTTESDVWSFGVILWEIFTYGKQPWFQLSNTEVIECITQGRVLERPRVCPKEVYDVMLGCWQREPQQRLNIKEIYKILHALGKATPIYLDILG
Sequence of BMPR1A (P36894 24-532): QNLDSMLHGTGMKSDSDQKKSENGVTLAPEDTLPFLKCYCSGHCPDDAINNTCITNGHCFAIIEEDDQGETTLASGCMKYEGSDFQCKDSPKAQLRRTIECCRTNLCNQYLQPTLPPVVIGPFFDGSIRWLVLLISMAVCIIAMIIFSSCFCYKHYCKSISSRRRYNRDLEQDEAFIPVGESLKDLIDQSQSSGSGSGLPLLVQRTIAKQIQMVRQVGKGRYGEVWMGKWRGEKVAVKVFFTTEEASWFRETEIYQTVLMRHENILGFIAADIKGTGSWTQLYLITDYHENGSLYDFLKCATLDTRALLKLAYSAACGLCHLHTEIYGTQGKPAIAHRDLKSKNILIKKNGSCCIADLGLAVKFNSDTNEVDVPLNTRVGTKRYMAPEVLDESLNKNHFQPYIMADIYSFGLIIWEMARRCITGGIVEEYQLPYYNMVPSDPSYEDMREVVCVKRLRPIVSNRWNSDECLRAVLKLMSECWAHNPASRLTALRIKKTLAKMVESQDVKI
Sequence of PFPK5 (P.falciparum) (P61075 whole entry): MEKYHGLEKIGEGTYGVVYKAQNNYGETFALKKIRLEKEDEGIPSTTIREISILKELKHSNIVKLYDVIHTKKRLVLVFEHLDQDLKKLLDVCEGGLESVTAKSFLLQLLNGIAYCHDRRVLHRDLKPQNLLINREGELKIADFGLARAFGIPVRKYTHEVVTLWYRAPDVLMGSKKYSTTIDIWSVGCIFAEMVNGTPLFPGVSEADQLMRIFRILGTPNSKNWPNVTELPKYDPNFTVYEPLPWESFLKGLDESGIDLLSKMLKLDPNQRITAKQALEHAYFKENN
Sequence of ACVR1B (P36896 24-505): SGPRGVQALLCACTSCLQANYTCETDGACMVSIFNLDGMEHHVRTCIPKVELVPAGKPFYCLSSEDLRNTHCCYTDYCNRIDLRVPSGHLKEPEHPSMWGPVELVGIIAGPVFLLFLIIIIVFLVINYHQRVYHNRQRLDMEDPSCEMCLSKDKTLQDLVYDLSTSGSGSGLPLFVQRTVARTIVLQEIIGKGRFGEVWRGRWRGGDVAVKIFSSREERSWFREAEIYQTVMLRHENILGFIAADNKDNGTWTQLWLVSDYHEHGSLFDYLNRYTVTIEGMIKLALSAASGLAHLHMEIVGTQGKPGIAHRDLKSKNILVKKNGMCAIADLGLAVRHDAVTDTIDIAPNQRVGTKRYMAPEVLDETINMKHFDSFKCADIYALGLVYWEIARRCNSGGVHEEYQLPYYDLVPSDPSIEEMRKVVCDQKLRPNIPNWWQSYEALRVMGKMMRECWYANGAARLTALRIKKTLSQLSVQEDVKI
Sequence of EGFR (L861Q) (P00533 25-1210 L861Q): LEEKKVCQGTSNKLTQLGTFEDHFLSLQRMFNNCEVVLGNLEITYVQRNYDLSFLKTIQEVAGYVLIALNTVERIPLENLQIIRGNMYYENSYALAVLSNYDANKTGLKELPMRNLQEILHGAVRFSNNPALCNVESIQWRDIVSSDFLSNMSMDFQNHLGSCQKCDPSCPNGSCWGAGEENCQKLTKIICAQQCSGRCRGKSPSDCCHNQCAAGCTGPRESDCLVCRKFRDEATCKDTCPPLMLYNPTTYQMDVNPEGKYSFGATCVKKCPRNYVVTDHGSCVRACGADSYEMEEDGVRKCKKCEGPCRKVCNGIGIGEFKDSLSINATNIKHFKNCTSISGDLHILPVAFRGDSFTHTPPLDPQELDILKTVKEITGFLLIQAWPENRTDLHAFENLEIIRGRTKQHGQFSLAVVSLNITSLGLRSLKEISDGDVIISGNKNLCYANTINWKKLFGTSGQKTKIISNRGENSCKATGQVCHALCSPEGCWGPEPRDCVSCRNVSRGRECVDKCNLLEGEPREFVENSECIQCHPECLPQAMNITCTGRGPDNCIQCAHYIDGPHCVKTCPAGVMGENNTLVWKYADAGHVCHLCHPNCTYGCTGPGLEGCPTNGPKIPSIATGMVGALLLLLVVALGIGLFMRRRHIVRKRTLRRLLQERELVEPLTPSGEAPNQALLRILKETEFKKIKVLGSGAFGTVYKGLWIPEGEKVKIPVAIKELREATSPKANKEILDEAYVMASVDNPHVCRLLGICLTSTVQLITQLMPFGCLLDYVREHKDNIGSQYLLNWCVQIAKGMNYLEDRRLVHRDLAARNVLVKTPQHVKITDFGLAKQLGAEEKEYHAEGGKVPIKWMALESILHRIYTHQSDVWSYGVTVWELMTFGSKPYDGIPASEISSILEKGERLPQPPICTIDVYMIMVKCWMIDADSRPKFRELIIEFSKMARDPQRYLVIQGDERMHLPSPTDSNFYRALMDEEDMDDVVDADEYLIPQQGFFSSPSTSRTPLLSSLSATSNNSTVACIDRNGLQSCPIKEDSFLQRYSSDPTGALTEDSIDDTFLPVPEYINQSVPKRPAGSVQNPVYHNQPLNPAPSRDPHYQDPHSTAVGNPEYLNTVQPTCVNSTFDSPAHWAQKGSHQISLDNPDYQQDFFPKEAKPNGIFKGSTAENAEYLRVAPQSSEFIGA

Cc1cc(Oc2cc(NC(=O)C3CC3)ncn2)ccc1NC(=O)Nc1ccc(Cl)c(C(F)(F)F)c1 [CBT-102]
remaining activity at 1 µM [1]: 92%
remaining activity at 1 µM [2]: 95%
remaining activity at 1 µM [3]: 6%
remaining activity at 1 µM (ACVR1): 95%
remaining activity at 1 µM (ACVR1B): 100%
remaining activity at 1 µM (BIKE): 61%
remaining activity at 1 µM (BMPR1A): 54%
remaining activity at 1 µM (CLK2): 100%
remaining activity at 1 µM (DLK): 89%
remaining activity at 1 µM [4]: 88%
remaining activity at 1 µM (EGFR (L861Q)): 56%
remaining activity at 1 µM (EPHA2): 40%
% Ctrl @ 1000 nM (FLT3 (ITD)): 18%
remaining activity at 1 µM (GRK7): 100%
remaining activity at 1 µM (HASPIN): 81%
remaining activity at 1 µM (INSRR): 100%
remaining activity at 1 µM (KIT (V559D, V654A)): 2.8%
remaining activity at 1 µM (MRCKA): 91%
remaining activity at 1 µM (MYLK): 98%
remaining activity at 1 µM (NDR1): 94%
remaining activity at 1 µM (NEK11): 100%
remaining activity at 1 µM (NLK): 16%
remaining activity at 1 µM (PAK6): 94%
remaining activity at 1 µM (PFPK5 (P.falciparum)): 100%
remaining activity at 1 µM (PIK3C2B): 100%
remaining activity at 1 µM (PIK3CA (E545K)): 94%
remaining activity at 1 µM (RIPK1): 95%
remaining activity at 1 µM (SIK2): 100%
remaining activity at 1 µM (SNRK): 100%
remaining activity at 1 µM (TAOK1): 49%
remaining activity at 1 µM (TBK1): 98%
remaining activity at 1 µM (TGFBR2): 56%
remaining activity at 1 µM (TIE2): 16%
remaining activity at 1 µM (TLK2): 100%
remaining activity at 1 µM (TRKC): 37%
remaining activity at 1 µM (TTK): 61%
remaining activity at 1 µM (TYRO3): 82%
Selectivity Score S (1) (403 non-mutant kinases; % Ctrl<1, 1000 nM): 0.032
Selectivity Score S (10) (403 non-mutant kinases; % Ctrl<10, 1000 nM): 0.089
Selectivity Score S (35) (403 non-mutant kinases; % Ctrl<35, 1000 nM): 0.151
Number of Hits, S (1) (403 non-mutant kinases; non-mutant kinases with % Ctrl<1, 1000 nM): 13
Number of Hits, S (10) (403 non-mutant kinases; non-mutant kinases with % Ctrl<10, 1000 nM): 36
Number of Hits, S (35) (403 non-mutant kinases; non-mutant kinases with % Ctrl<35, 1000 nM): 61
